# PMC6446049 (Alzheimer's & Dementia : Translational Research & Clinical …, 2019)
# Legend:
# [1] = test system: healthy elderly subjects (scopolamine challenge); experiment: N-back test in scopolamine challenge; assay type: in vivo, human; settings: for N-back, 0-back accuracy / N-back, 0-back reaction time / N-back, 1-back accuracy / N-back, 2-back accuracy / N-back, 2-back reaction time: vs placebo (95% CI), scopolamine 0.3 mg i.v.
# [2] = test system: healthy elderly subjects (scopolamine challenge); experiment: Safety assessment: adverse events, vital signs, ECG, laboratory; assay type: in vivo, human; settings: scopolamine 0.3 mg i.v.
# [3] = test system: healthy volunteers; settings: single oral doses; cited from earlier work
# [4] = test system: patients with mild-to-moderate Alzheimer's disease; settings: cited from earlier work
# [5] = Plasma pharmacokinetics; settings: noncompartmental analysis
# [6] = test system: healthy elderly subjects (scopolamine challenge); experiment: Adaptive tracking; assay type: in vivo, human; settings: for Adaptive tracking: vs placebo (95% CI), scopolamine 0.3 mg i.v.
# [7] = test system: healthy elderly subjects (scopolamine challenge); experiment: Saccadic eye movements in scopolamine challenge; assay type: in vivo, human; settings: for Saccadic inaccuracy / Saccadic reaction time: vs placebo (95% CI), scopolamine 0.3 mg i.v.
# [8] = test system: healthy elderly subjects (scopolamine challenge); experiment: Body sway meter; assay type: in vivo, human; settings: scopolamine alone 0.3 mg i.v.
# [9] = test system: healthy subjects; settings: scopolamine alone, previous study; cited from earlier work
# [10] = test system: healthy volunteers; settings: 0.5 mg intravenously; healthy young volunteers; cited from earlier work
# [11] = test system: healthy elderly subjects (scopolamine challenge); experiment: Pharmaco-electroencephalography in scopolamine challenge; assay type: in vivo, human; settings: scopolamine alone 0.3 mg i.v.
# [12] = test system: healthy elderly subjects (scopolamine challenge); experiment: Simple reaction time task in scopolamine challenge; assay type: in vivo, human; settings: scopolamine alone 0.3 mg i.v.
# [13] = DPZ placebo + EVP-6124 0.3 mg, N 12
# [14] = DPZ placebo + EVP-6124 1 mg, N 11
# [15] = DPZ placebo + EVP-6124 2 mg, N 12
# [16] = DPZ placebo + EVP-6124 4 mg, N 12
# [17] = DPZ 2.5 mg + EVP-6124 placebo, N 11
# [18] = DPZ 5.0 mg + EVP-6124 placebo, N 10
compound,measurement,setting,value
O=C(N[C@H]1CN2CCC1CC2)c1cc2cccc(Cl)c2s1 [EVP-6124],"N-back, 0-back accuracy",[1]; DPZ placebo + EVP-6124 0.3 mg,"0.02 (−0.04, 0.08) P = .5073%"
same,"N-back, 0-back reaction time",[1]; DPZ placebo + EVP-6124 0.3 mg,"8 (−12, 29) P = .4004 ms"
same,"N-back, 1-back accuracy",[1]; DPZ placebo + EVP-6124 0.3 mg,"0.02 (−0.05, 0.10) P = .5558%"
same,"N-back, 2-back accuracy",[1]; DPZ placebo + EVP-6124 0.3 mg,"−0.02 (−0.11, 0.07) P = .6878%"
same,"N-back, 2-back reaction time",[1]; DPZ placebo + EVP-6124 0.3 mg,"−5 (−36, 25) P = .7210 ms"
same,"N-back, 0-back accuracy",[1]; DPZ placebo + EVP-6124 1 mg,"0.04 (−0.03, 0.10) P = .2318%"
same,"N-back, 0-back reaction time",[1]; DPZ placebo + EVP-6124 1 mg,"−17 (−37, 4) P = .1085 ms"
same,"N-back, 1-back accuracy",[1]; DPZ placebo + EVP-6124 1 mg,"0.04 (−0.04, 0.12) P = .3062%"
same,"N-back, 2-back accuracy",[1]; DPZ placebo + EVP-6124 1 mg,"0.01 (−0.08, 0.10) P = .8796%"
same,"N-back, 2-back reaction time",[1]; DPZ placebo + EVP-6124 1 mg,"−3 (−33, 28) P = .8693 ms"
same,"N-back, 0-back accuracy",[1]; DPZ placebo + EVP-6124 2 mg,"0.05 (−0.01, 0.11) P = .0818%"
same,"N-back, 0-back reaction time",[1]; DPZ placebo + EVP-6124 2 mg,"−5 (−25, 15) P = .6209 ms"
same,"N-back, 2-back accuracy",[1]; DPZ placebo + EVP-6124 2 mg,"0.03 (−0.06, 0.13) P = .4557%"
same,"N-back, 2-back reaction time",[1]; DPZ placebo + EVP-6124 2 mg,"1 (−29, 31) P = .9305 ms"
same,"N-back, 0-back reaction time",[1]; DPZ placebo + EVP-6124 4 mg,"−16 (−36, 4) P = .1151 ms"
same,"N-back, 1-back accuracy",[1]; DPZ placebo + EVP-6124 4 mg,"0.05 (−0.03, 0.12) P = .2385%"
same,"N-back, 2-back accuracy",[1]; DPZ placebo + EVP-6124 4 mg,"−0.02 (−0.11, 0.07) P = .7181%"
same,"N-back, 2-back reaction time",[1]; DPZ placebo + EVP-6124 4 mg,"−8 (−39, 22) P = .5733 ms"
same,"Disturbance in attention, treatment-related adverse event, subjects n (%)",[2]; [13],2 (16.7%)
same,"Dizziness, treatment-related adverse event, subjects n (%)",[2]; [13],6 (50.0%)
same,"Dry mouth, treatment-related adverse event, subjects n (%)",[2]; [13],8 (66.7%)
same,"Gait disturbance, treatment-related adverse event, subjects n (%)",[2]; [13],1 (8.3%)
same,"Headache, treatment-related adverse event, subjects n (%)",[2]; [13],1 (8.3%)
same,"Somnolence, treatment-related adverse event, subjects n (%)",[2]; [13],6 (50.0%)
same,"Disturbance in attention, treatment-related adverse event, subjects n (%)",[2]; [14],2 (18.2%)
same,"Dizziness, treatment-related adverse event, subjects n (%)",[2]; [14],3 (27.3%)
same,"Gait disturbance, treatment-related adverse event, subjects n (%)",[2]; [14],1 (9.1%)
same,"Headache, treatment-related adverse event, subjects n (%)",[2]; [14],3 (27.3%)
same,"Somnolence, treatment-related adverse event, subjects n (%)",[2]; [14],5 (45.5%)
same,"Disturbance in attention, treatment-related adverse event, subjects n (%)",[2]; [15],1 (8.3%)
same,"Dizziness, treatment-related adverse event, subjects n (%)",[2]; [15],4 (33.3%)
same,"Dry mouth, treatment-related adverse event, subjects n (%)",[2]; [15],10 (83.3%)
same,"Gait disturbance, treatment-related adverse event, subjects n (%)",[2]; [15],1 (8.3%)
same,"Somnolence, treatment-related adverse event, subjects n (%)",[2]; [15],8 (66.7%)
same,"Disturbance in attention, treatment-related adverse event, subjects n (%)",[2]; [16],2 (16.7%)
same,"Dizziness, treatment-related adverse event, subjects n (%)",[2]; [16],5 (41.7%)
same,"Dry mouth, treatment-related adverse event, subjects n (%)",[2]; [16],10 (83.3%)
same,"Gait disturbance, treatment-related adverse event, subjects n (%)",[2]; [16],3 (25.0%)
same,"Headache, treatment-related adverse event, subjects n (%)",[2]; [16],1 (8.3%)
same,"Somnolence, treatment-related adverse event, subjects n (%)",[2]; [16],7 (58.3%)
same,dose at which effects on the Digit Symbol Substitution Test were most prevalent,[3],20 mg
same,reason why phase III trials were halted in 2015,[4],gastrointestinal adverse events
same,EVP-6124 pharmacokinetic parameters with or without donepezil,[5],similar
same,Adaptive tracking,[6]; DPZ placebo + EVP-6124 0.3 mg,"−1.23 (−2.80, 0.34) P = .1200%"
same,Adaptive tracking,[6]; DPZ placebo + EVP-6124 1 mg,"0.03 (−1.56, 1.63) P = .9671%"
same,Adaptive tracking,[6]; DPZ placebo + EVP-6124 2 mg,"−0.83 (−2.33, 0.67) P = .2691%"
same,Adaptive tracking,[6]; DPZ placebo + EVP-6124 4 mg,"−0.26 (−1.76, 1.24) P = .7281%"
same,Saccadic inaccuracy,[7]; DPZ placebo + EVP-6124 0.3 mg,"0.6 (−0.2, 1.4) P = .1224%"
same,Saccadic reaction time,[7]; DPZ placebo + EVP-6124 0.3 mg,"−4 (−13, 5) P = .4018 ms"
same,Saccadic inaccuracy,[7]; DPZ placebo + EVP-6124 1 mg,"0.0 (−0.8, 0.8) P = .9525%"
same,Saccadic reaction time,[7]; DPZ placebo + EVP-6124 1 mg,"−2 (−12, 7) P = .5871 ms"
same,Saccadic inaccuracy,[7]; DPZ placebo + EVP-6124 2 mg,"−0.1 (−0.9, 0.6) P = .7196%"
same,Saccadic reaction time,[7]; DPZ placebo + EVP-6124 2 mg,"−3 (−12, 6) P = .4605 ms"
same,Saccadic inaccuracy,[7]; DPZ placebo + EVP-6124 4 mg,"0.3 (−0.5, 1.1) P = .4213%"
same,Saccadic reaction time,[7]; DPZ placebo + EVP-6124 4 mg,"3 (−6, 11) P = .5707 ms"
CN1[C@@H]2C[C@@H](OC(=O)[C@H](CO)c3ccccc3)C[C@H]1[C@@H]1O[C@@H]12 [scopolamine],performance on N-back,[1]; scopolamine alone 0.3 mg i.v.,worsened performance
same,performance on body sway,[8],worsened performance
same,reduction of adaptive tracking scores,[9],42%
same,cognitive effect of scopolamine,[10],significant cognitive deficits
same,EEG alpha frequency,[11],decrease
same,EEG beta frequency,[11],did not affect
same,EEG delta frequency,[11],increase
same,EEG theta frequency,[11],did not affect
same,performance on adaptive tracking,[6]; scopolamine alone 0.3 mg i.v.,worsened performance
same,performance on saccadic eye movements,[7]; scopolamine alone 0.3 mg i.v.,worsened performance
same,performance on SRT,[12],worsened performance
"COc1cc2c(cc1OC)C(=O)C(CC1CCN(Cc3ccccc3)CC1)C2 (centres unmarked) [DPZ, donepezil, reference compound]","N-back, 0-back accuracy",[1]; DPZ 2.5 mg + EVP-6124 placebo,"0.03 (−0.05, 0.11) P = .4512%"
same,"N-back, 0-back reaction time",[1]; DPZ 2.5 mg + EVP-6124 placebo,"−24 (−48, 1) P = .0615 ms"
same,"N-back, 1-back accuracy",[1]; DPZ 2.5 mg + EVP-6124 placebo,"−0.00 (−0.12, 0.11) P = .9598%"
same,"N-back, 2-back accuracy",[1]; DPZ 2.5 mg + EVP-6124 placebo,"0.04 (−0.08, 0.17) P = .5034%"
same,"N-back, 2-back reaction time",[1]; DPZ 2.5 mg + EVP-6124 placebo,"−27 (−70, 16) P = .2115 ms"
same,"N-back, 0-back accuracy",[1]; DPZ 5 mg + EVP-placebo,"0.04 (−0.02, 0.10) P = .1614%"
same,"N-back, 0-back reaction time",[1]; DPZ 5 mg + EVP-placebo,"−18 (−36, −1) P = .0386 ms"
same,"N-back, 1-back accuracy",[1]; DPZ 5 mg + EVP-placebo,"0.03 (−0.05, 0.11) P = .4286%"
same,"N-back, 2-back accuracy",[1]; DPZ 5 mg + EVP-placebo,"0.02 (−0.08, 0.11) P = .7469%"
same,"N-back, 2-back reaction time",[1]; DPZ 5 mg + EVP-placebo,"35 (−1, 70) P = .0541 ms"
same,"Headache, treatment-related adverse event, subjects n (%)",[2]; [17],1 (9.1%)
same,"Somnolence, treatment-related adverse event, subjects n (%)",[2]; [17],7 (63.6%)
same,"Disturbance in attention, treatment-related adverse event, subjects n (%)",[2]; [18],1 (10.0%)
same,"Dizziness, treatment-related adverse event, subjects n (%)",[2]; [18],6 (60.0%)
same,"Dry mouth, treatment-related adverse event, subjects n (%)",[2]; [18],6 (60.0%)
same,"Headache, treatment-related adverse event, subjects n (%)",[2]; [18],1 (10.0%)
same,"Somnolence, treatment-related adverse event, subjects n (%)",[2]; [18],6 (60.0%)
same,Adaptive tracking,[6]; DPZ 2.5 mg + EVP-6124 placebo,"1.49 (0.20, 2.77) P = .0247%"
same,Adaptive tracking,[6]; DPZ 5 mg + EVP-placebo,"0.72 (−0.76, 2.20) P = .3297%"
same,Saccadic inaccuracy,[7]; DPZ 2.5 mg + EVP-6124 placebo,"−1.4 (−2.7, −0.1) P = .0311%"
same,Saccadic reaction time,[7]; DPZ 2.5 mg + EVP-6124 placebo,"−4 (−20, 11) P = .5539 ms"
same,Saccadic inaccuracy,[7]; DPZ 5 mg + EVP-placebo,"0.0 (−0.9, 1.0) P = .9433%"
same,Saccadic reaction time,[7]; DPZ 5 mg + EVP-placebo,"−11 (−20, −2) P = .0190 ms"
